Patent US20050100588A1, “Self-adhesive matrix plaster containing an active ingredient and based on polyurethane gels” (Beiersdorf AG, priority 2001, published 2005)

Test: Active ingredient release of NVA to pig's skin
Type: in vitro ADME
Conditions: pig's skin, 2, 4, 6, 8 and 24 hours, FIG. 7
Method: For investigating the release characteristics, specimens on pig's skin are prepared and the release is determined quantitatively after 24 hours.
In order to investigate the release characteristics, samples on pig's skin are prepared and the release is determined quantitatively after 2, 4, 6, 8 and 24 hours. […] From this it is clear that the active ingredient is delivered in a controlled, sustained manner into the skin to develop its activity there.

CCCCCCCCC(=O)NCc1ccc(O)c(OC)c1 [NVA, Nonivamide]
quantity of NVA released in total to epidermis and dermis, course over time: uniform, linear increase
